# From US20210086176A1, “Analyte Detection method” (The Board of Trustees of the Leland Stanford Junior …, priority 2017, published 2021)
# What was measured:
# [1] = mouse, in vivo, po, 10 mg/kg
# [2] = inhalation; cited from earlier work
# [3] = in vivo; cited from earlier work
smiles,measurement,setting,value
Cc1nccn1CC1CCc2c(c3ccccc3n2C)C1=O (stereo not drawn) [ondansetron],"slope of trend line, plasma (y) versus whole blood (x) ondansetron concentration",[1],0.973
CC#N [acetonitrile],acetonitrile in inhaled air that can induce toxic effects,[2],100 ppm
CCC(=O)C(CC(C)N(C)C)(c1ccccc1)c1ccccc1 (stereo not drawn) [methadone],minimally effective plasma analgesic concentration (MEAC),[3],60 ng/mL
